Entries after “also recorded” stand apart in the source; their conditions may differ. Where a SMILES comes first, the peptide text is derived from it. Bridges are numbered along the chain shown (N, C = ends). [ ]: non-standard residue; d: D form. dOrn = NCCC[C@@H](N)C(=O)O
Assays:
E. coli BW25113 = assay: Time-dependent killing assay, E. coli; type: cell-based; conditions: E. coli BW25113, MHB, 5×MIC (160 μg/ml), 37°C, 0-24 h; mean of three biological replicates
Experimental: E. coli BW25113 and Klebsiella pneumoniae C1559 were grown overnight in 5 ml of cation-adjusted Mueller-Hinton Broth. The cultures were then inoculated into fresh medium to achieve an OD600 of 0.1, corresponding to a concentration of 10^8 CFU/ml. […] Samples were taken at 0 h, 3 h, 6 h, and 24 h post-incubation, plated on MHA plates, and incubated for 20–24 hours at 37°C. Colony counts were used to determine the log reduction in CFU/ml, comparing treated strains to untreated control samples.

[1] = tested on: 70S ribosome (50S subunit); assay: Cryo-EM of MKM-stalled ribosome complexes; type: binding, E. coli; conditions: ermBL MKM-SRC, 50 μM MKM
Experimental: MKM-ribosome complexes were generated by in vitro translation reactions in the PURExpress In vitro Protein Synthesis Kit (NEB) as described by the manufacturer. Complex formation reactions were carried out on ermBL toeprint mRNA template (Supplementary Table 7) in a 75 μl of reaction in presence of 50 μM MKM. The reaction was incubated for 15 min at 37 °C. The reaction volume was then split: 69 μl were used for complex generation and 6 μl were further analyzed by toeprinting. Ribosome complexes were isolated by centrifugation in 900 μl of sucrose gradient buffer (containing 40% sucrose, 50 mM HEPES-KOH, pH 7.4, 100 mM KOAc, 25 mM Mg(OAc)2 and 6 mM 2-mercaptoethanol) for 3 h at 4 °C with 80,000 g in a Optima Max-XP Tabletop Ultracentrifuge with a TLA 120.2 rotor. […]
Cryo-EM grids were prepared by applying 3.5 μl of MKM-70S complexes onto freshly glow-discharged Quantifoil R3.5/1 grids (copper, 300 mesh, with an additional 3 nm carbon layer; Product: C3-C19nCu30–01). […]
Movies were captured at a nominal magnification of 105,000×, corresponding to a calibrated pixel size of 0.832 Å (0.416 Å in super-resolution mode, binned 2× via EPU). […] Each exposure lasted 1.95 seconds in nanoprobe mode, during which 35 frames were recorded at a dose rate of ~1.14 electrons per frame per Å^2, resulting in a total accumulated dose of approximately 40 electrons per Å^2 (~15 e^−/px/s over vacuum). […]

Klebsiella pneumoniae = assay: Antimicrobial activity, Klebsiella pneumoniae; type: cell-based
[2] = tested on: bacteria with resistance mechanisms to other translation-inhibiting antibiotics; conditions: bacterial pathogens; unique site of action in the ribosome
[3] = tested on: K. pneumoniae ATCC 33495 and C1559; assay: C. elegans – K. pneumoniae in vivo antibiotic activity assay (survival); design: species or system K. pneumoniae in Caenorhabditis elegans
Experimental: A C. elegans double mutant strain, AU37 (glp-4(bn2);sek-1(km4)), was used for this assay due to its enhanced pathogen infection sensitivity and temperature-sensitive sterility. The infection protocol was carried out as previously described, with slight modifications to accommodate our experimental conditions. Standard C. elegans media and protocols were used for the maintenance and growth of worms. To summarize, eggs were collected from gravid adult worms by bleaching and incubated on solid agar plates at 25 °C for 48 hours, until early adulthood. Worms were thoroughly washed with M9 buffer and transferred onto LB agar plates containing lawns of infective K. pneumoniae and incubated for another 24 hours. Worms were then washed from plates and resuspended in M9 to an approximate 2 worm per microlitre concentration. A survival assay was conducted in a 96-well plate with experimental wells containing 15 μl of worms, 80 μl S-basal (5.85 g NaCl, 1 g K2HPO4, 6 g KH2PO4, 1 ml cholesterol (5 mg/ml in ethanol), H2O to 1 litre. Sterilize by autoclaving), and 5 μl of test compound. Plates were sealed with a porous film and incubated at 25°C for a total of 7 days. The number of dead worms were counted every 24 hours to generate a Kaplan-Meier survival curve.

Compound: C[C@@H](O)[C@@H]1NC(=O)[C@@H](CCCNC(=N)N)NC(=O)[C@@H](CCCNC(=N)N)NC(=O)[C@@H](CC(N)=O)NC(=O)[C@@H](NC(=O)[C@@H](Cc2ccccc2)NC(=O)[C@@H](CCCN)NC(=O)[C@H](N)CCCNC(=N)N)[C@@H](C)OC(=O)[C@H](Cc2c[nH]cn2)NC1=O [MKM, manikomycin A] (H-[dR][dOrn][dF]T[dN][dR][dR]TH; ester 4-C)
- time-kill effect (E. coli BW25113): bactericidal
- second binding site [1]: at the back of the 50S subunit
- primary binding site ([1]; 2.4 Å focused refinement on 50S): located within the E site of the 50S subunit
- antimicrobial activity (Klebsiella pneumoniae): selective antimicrobial activity
- sensitivity to resistance mechanisms against other translation inhibitors [2]: insensitive to resistance mechanisms
- survival benefit in C. elegans (in words) ([3]; MKM 64 μg/ml or polymyxin B 25 μg/ml, 6 days, vs DMSO, Log-rank (Mantel–Cox) test): significantly improved survival; also recorded: markedly improved survival
- nematodes alive by day 6 ([3]; MKM 64 μg/ml, both infection models (ATCC 33495 and C1559), DMSO ~10% (ATCC 33495), ~30% (C1559), n > 60 worms per group): 55–60%
